Laboratory results from patent US9695155B2, “Herbicidal substituted pyrimidinyloxy benzene compounds” (E. I. DU PONT DE NEMOURS AND COMPANY, priority 2013, dated 2017).

Legend:
Heteranthera limosa = assay: Test B flooded paddy test; format: in vivo; conditions: Flood, 250 g ai/ha; 0 to 100 scale where 0 is no effect and 100 is complete control
Outline: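 Evaluation is visual, against untreated controls, 13 to 15 days after treatment. Before treatment, plants reached the 2-leaf stage; pots were then flooded 3 cm deep, compound was added to the water, and that level was maintained. Ratings run 0 to 100, with 100 meaning complete control.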

giant foxtail [1] = assay: Test A postemergence; format: in vivo, Setaria faberii; conditions: 0 to 100 scale where 0 is no effect and 100 is complete control
Outline: (§1)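 Visual 0–100 rating (100 = complete control) taken about 10 d post-treatment relative to untreated checks. Preemergence: directed soil spray on sown loam/sand pots. Postemergence: seedlings 2–10 cm, 1–2 leaf. Non-phytotoxic solvent formulation with surfactant.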

morningglory = assay: Test A postemergence; format: in vivo, Ipomoea spp.; conditions: 0 to 100 scale where 0 is no effect and 100 is complete control
Outline: as §1

Italian ryegrass [2] = assay: Test C preemergence; format: in vivo, Lolium multiflorum; conditions: for Ryegrass, Italian plant response rating: preemergence; for Plant response rating, Ryegrass, Italian: Preemergence, 31 g ai/ha, scale 0 to 100, 0 no effect, 100 complete control
Outline: (§2)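 Plants were kept under greenhouse conditions for 13–15 days following spray. Pre-emergent application went to soil (loam–sand), post-emergent to foliage at 1–4 leaves. Evaluation: visual, percent control against untreated checks.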

velvetleaf = assay: Test C preemergence; format: in vivo, Abutilon theophrasti; conditions: for Velvetleaf plant response rating: preemergence; for Plant response rating, Velvetleaf: Preemergence, 31 g ai/ha, scale 0 to 100, 0 no effect, 100 complete control
Outline: as §2

pigweed = assay: Test A postemergence; format: in vivo, Amaranthus retroflexus; conditions: 0 to 100 scale where 0 is no effect and 100 is complete control
Outline: as §1

soybean = assay: Test C postemergence; format: in vivo, Glycine max; conditions: for Plant response rating, Soybean: scale 0 to 100 (0 no effect, 100 complete control)
Outline: as §2

blackgrass = assay: Test C preemergence; format: in vivo, Alopecurus myosuroides; conditions: for Blackgrass plant response rating: preemergence; for Plant response rating, Blackgrass: Preemergence, 31 g ai/ha, scale 0 to 100, 0 no effect, 100 complete control
Outline: as §2

barnyardgrass [3] = assay: Test A postemergence; format: in vivo, Echinochloa crus-galli; conditions: 0 to 100 scale where 0 is no effect and 100 is complete control
Outline: as §1

barnyardgrass [4] = assay: Test C preemergence; format: in vivo, Echinochloa crus-galli; conditions: for Barnyardgrass plant response rating: preemergence; for Plant response rating, Barnyardgrass: Preemergence, 31 g ai/ha, scale 0 to 100, 0 no effect, 100 complete control
Outline: as §2

wheat, winter = assay: Test C preemergence; format: in vivo, Triticum aestivum; conditions: for Wheat plant response rating: preemergence; for Plant response rating, Wheat: Preemergence, 31 g ai/ha, scale 0 to 100, 0 no effect, 100 complete control
Outline: as §2

johnsongrass = assay: Test C postemergence; format: in vivo, Sorghum halepense; conditions: for Johnsongrass plant response rating: 16 g ai/ha; for Johnsongrass plant response rating / Plant response rating, Johnsongrass: scale 0 to 100 (0 no effect, 100 complete control)
Outline: as §2

Italian ryegrass [5] = assay: Test C postemergence; format: in vivo, Lolium multiflorum; conditions: for Plant response rating, Ryegrass, Italian: scale 0 to 100 (0 no effect, 100 complete control)
Outline: as §2

giant foxtail [6] = assay: Test A preemergence; format: in vivo, Setaria faberii; conditions: for Plant response rating, Foxtail, Giant: 125 g ai/ha, 0 to 100 scale where 0 is no effect and 100 is complete control; for Foxtail, Giant plant response rating: 500 g ai/ha, 0 to 100 scale, 0 no effect, 100 complete control, approx. 10 days
Outline: as §1

lambsquarters = assay: Test C preemergence; format: in vivo, Chenopodium album; conditions: for Lambsquarters plant response rating: preemergence; for Plant response rating, Lambsquarters: Preemergence, 31 g ai/ha, scale 0 to 100, 0 no effect, 100 complete control
Outline: as §2

[7] = 16 g ai/ha, scale 0 to 100 (0 no effect, 100 complete control)
[8] = 62 g ai/ha, scale 0 (no effect) to 100 (complete control)
[9] = 125 g ai/ha, scale 0 (no effect) to 100 (complete control)
[10] = Postemergence, 31 g ai/ha, 13 to 15 days
[11] = postemergence, visual rating, 13 to 15 days
[12] = 125 g ai/ha, postemergence, visual rating

CCOc1cnn(-c2c(C#N)cccc2Oc2ncc(Cl)cn2)c1 [Compound 92]
Plant response rating, Ducksalad (Heteranthera limosa): 95
Plant response rating, Foxtail, Giant (giant foxtail [1]; 125 g ai/ha): 80
Plant response rating, Foxtail, Giant (giant foxtail [1]; 500 g ai/ha): 90
Plant response rating, Morningglory (morningglory; 125 g ai/ha): 100
Plant response rating, Morningglory (morningglory; 500 g ai/ha): 100
Ryegrass, Italian plant response rating (Italian ryegrass [2]; [7]): 0
Ryegrass, Italian plant response rating (Italian ryegrass [2]; [8]): 50
Ryegrass, Italian plant response rating (Italian ryegrass [2]; [9]): 85
Plant response rating, Ryegrass, Italian (Italian ryegrass [2]): 10
Velvetleaf plant response rating (velvetleaf; [7]): 30
Velvetleaf plant response rating (velvetleaf; [8]): 100
Velvetleaf plant response rating (velvetleaf; [9]): 100
Plant response rating, Velvetleaf (velvetleaf): 90
Plant response rating, Pigweed (pigweed; 125 g ai/ha): 100
Plant response rating, Pigweed (pigweed; 500 g ai/ha): 100
Plant response rating (0 to 100), Soybean (soybean; 125 g ai/ha, postemergence): 95
Plant response rating, Soybean (soybean; [10]): 70
Plant response rating, Soybean (soybean; Postemergence, 62 g ai/ha): 90
Blackgrass plant response rating (blackgrass; [7]): 0
Blackgrass plant response rating (blackgrass; [8]): 70
Blackgrass plant response rating (blackgrass; [9]): 90
Plant response rating, Blackgrass (blackgrass): 5
Plant response rating, Barnyardgrass (barnyardgrass [3]; 125 g ai/ha): 90
Plant response rating, Barnyardgrass (barnyardgrass [3]; 500 g ai/ha): 100
Barnyardgrass plant response rating (barnyardgrass [4]; [7]): 5
Barnyardgrass plant response rating (barnyardgrass [4]; [8]): 100
Barnyardgrass plant response rating (barnyardgrass [4]; [9]): 100
Plant response rating, Barnyardgrass (barnyardgrass [4]): 75
Wheat plant response rating (wheat, winter; [7]): 0
Wheat plant response rating (wheat, winter; [8]): 30
Wheat plant response rating (wheat, winter; [9]): 80
Plant response rating, Wheat (wheat, winter): 0
Johnsongrass plant response rating (johnsongrass; [11]): 0
Plant response rating (0 to 100), Johnsongrass (johnsongrass; 125 g ai/ha, postemergence): 5
Plant response rating, Johnsongrass (johnsongrass; [10]): 0
Plant response rating, Johnsongrass (johnsongrass; Postemergence, 62 g ai/ha): 5
Plant response rating (0 to 100), Ryegrass, Italian (Italian ryegrass [5]; 125 g ai/ha, postemergence): 35
Plant response rating, Ryegrass, Italian (Italian ryegrass [5]; [10]): 5
Plant response rating, Ryegrass, Italian (Italian ryegrass [5]; Postemergence, 62 g ai/ha): 5
Plant response rating, Foxtail, Giant (giant foxtail [6]): 100
Foxtail, Giant plant response rating (giant foxtail [6]): 100
Lambsquarters plant response rating (lambsquarters; [7]): 65
Lambsquarters plant response rating (lambsquarters; [8]): 100
Lambsquarters plant response rating (lambsquarters; [9]): 98
Plant response rating, Lambsquarters (lambsquarters): 98

N#Cc1cnn(-c2c(C#N)cccc2Oc2ncc(F)cn2)c1 [Compound 111]
Plant response rating, Ducksalad (Heteranthera limosa): 70
Plant response rating, Foxtail, Giant (giant foxtail [1]; 125 g ai/ha): 80
Plant response rating, Foxtail, Giant (giant foxtail [1]; 500 g ai/ha): 90
Plant response rating, Morningglory (morningglory; 500 g ai/ha): 90
Ryegrass, Italian plant response rating (Italian ryegrass [2]; [7]): 0
Ryegrass, Italian plant response rating (Italian ryegrass [2]; [8]): 40
Ryegrass, Italian plant response rating (Italian ryegrass [2]; [9]): 60
Plant response rating, Ryegrass, Italian (Italian ryegrass [2]): 0
Velvetleaf plant response rating (velvetleaf; [7]): 60
Velvetleaf plant response rating (velvetleaf; [8]): 90
Velvetleaf plant response rating (velvetleaf; [9]): 100
Plant response rating, Velvetleaf (velvetleaf): 60
Plant response rating, Pigweed (pigweed; 500 g ai/ha): 100
Plant response rating, Soybean (soybean; [12]): 95
Plant response rating, Soybean (soybean; Postemergence, 62 g ai/ha): 80
Blackgrass plant response rating (blackgrass; [7]): 20
Blackgrass plant response rating (blackgrass; [8]): 40
Blackgrass plant response rating (blackgrass; [9]): 90
Plant response rating, Blackgrass (blackgrass): 10
Plant response rating, Barnyardgrass (barnyardgrass [3]; 125 g ai/ha): 60
Plant response rating, Barnyardgrass (barnyardgrass [3]; 500 g ai/ha): 90
Barnyardgrass plant response rating (barnyardgrass [4]; [7]): 5
Barnyardgrass plant response rating (barnyardgrass [4]; [8]): 90
Barnyardgrass plant response rating (barnyardgrass [4]; [9]): 100
Plant response rating, Barnyardgrass (barnyardgrass [4]): 55
Wheat plant response rating (wheat, winter; [7]): 0
Wheat plant response rating (wheat, winter; [8]): 0
Wheat plant response rating (wheat, winter; [9]): 20
Plant response rating, Wheat (wheat, winter): 30
Johnsongrass plant response rating (johnsongrass; [11]): 5
Plant response rating, Johnsongrass (johnsongrass; [12]): 10
Plant response rating, Johnsongrass (johnsongrass; Postemergence, 62 g ai/ha): 5
Plant response rating, Ryegrass, Italian (Italian ryegrass [5]; [12]): 0
Plant response rating, Ryegrass, Italian (Italian ryegrass [5]; Postemergence, 62 g ai/ha): 0
Plant response rating, Foxtail, Giant (giant foxtail [6]): 100
Foxtail, Giant plant response rating (giant foxtail [6]): 100
Lambsquarters plant response rating (lambsquarters; [7]): 50
Lambsquarters plant response rating (lambsquarters; [8]): 100
Lambsquarters plant response rating (lambsquarters; [9]): 100
Plant response rating, Lambsquarters (lambsquarters): 100
